Series [1] deals with Kennel cough, Giardia and Isospora infections. In words: Treatment of Kennel cough, Giardia and Isospora infections in a dog.
The subject of series [2] is Candida albicans. Description: Treatment of recurring Candida albicans vaginal yeast infection. The class given is in vivo, human. The source says: A volunteer 57 kg body weight with frequent recurring vaginal Candida albicans infection was diagnosed and treated by their gynecologist over a period of 15 years. The reccurrence frequency was 2-3 flare ups every year for the past 15 years. […] However, 3-6 months later the infection would again appear. Chlorhexidine wash was also tried to prevent recurrence to no effect.
No flare-up has been detected for at least three years. No other treatment was used since there had been no recurrence.

For series [3] the following is noted: known substances; cited from earlier work.
The test system of series [4] is herpes simplex labialis. In words: Treatment of herpes simplex labialis. Format: in vivo, human. The source says: A volunteer, 54 kg suffered from recurring herpes outbreaks on the lip. The outbreaks happened about every two years and were associated with immune compromised conditions like stress, concurrent upper respiratory infection and menstrual cycles. The outbreaks last approximately 7-9 days and no spontaneous remission of an outbreak had occurred.
The outbreaks always followed a predictable progression and included a tingling sensation, redness and swelling of about 5 mm area on upper right side middle of the lip and 2-4 days after the onset blisters appear that turns into a scab that last about 5 days. The only medicine that could slightly alter this course was Zovirax crema/acyclovir/if the treatment began at the first sign of an outbreak. No other medicine had any effect on alleviating symptoms. With the treatment of Zovirax the blister size smaller (about 4 mm in diameter) and the duration of the outbreak was shorter (to approximately 5 days).
Topical and oral cyanogenic composition medications were applied simultaneously with no other medication.

Series [5] relates to Pseudomonas Aeruginosa. Description: Aerobic Culture and Mic from ear swab.
Series [6] relates to bacterial pneumonia. In words: Treatment of bacterial pneumonia in a cat. Format: in vivo. The following applies: before the cyanogenic composition.
For series [7] the following is noted: cited from earlier work.
Series [8] concerns respiratory infection. In words: Treatment of therapy resistant respiratory infection in a cat. Format: in vivo. The following applies: clavamox oral, five days later convenia injections. As to the method: A two year old domestic short hair cat, six pounds, body weight, temp 102° F. emaciated cat came from a cat holding facility and was FIV and FELV negative. Its clinical symptoms: very severe wheezing respiration, very moist cough, frequent sneezing all day beginning 10 days previously. The cat had been treated in another hospital previously with antibiotics: first, clavamox oral/contains amoxicillin and with β-lactamase-inhibiting effect clavulanic acid known as for powerful, broad-spectrum antimicrobial activity. […] CBC chemistry blood work was performed. The only abnormality was a 40% increase in Monocytes above the highest normal, and mild anemia.

Series [9] is described as follows: Treatment of chronic suppurative prostatitis / prostate abscess in a dog. The following applies: in vivo. As to the method: An eight year old Akita dog presented suffering from chronic, recurring prostatitis with typical clinical symptoms associated with the condition. […] This condition had worsened in the previous eight months, causing significant suffering by the pet and frustration to the dog's owner.
In the second week the dose was adjusted to 5 mg/kg inj. twice/day. […] The treatment continued in the 3rd week with 2 mg/bw kg dose twice/day.

The subject of series [10] is Rhodococcus equi. In words: Antibiotic sensitivity testing of the foal's bacterial culture. The class given is cell-based.

Where two headings read alike, the source gives them in different places. Where only a bound is given, the exact number is not on record here.

Data on 23 compounds can be found in patent US10723751B2 (priority 2013, dated 2020).

Consider `CC[C@H]1OC(=O)[C@H](C)[C@@H](O[C@H]2C[C@@](C)(OC)[C@@H](O)[C@H](C)O2)[C@H](C)[C@@H](O[C@@H]2O[C@H](C)C[C@H](N(C)C)[C@H]2O)[C@](C)(O)C[C@@H](C)CN(C)[C@H](C)[C@@H](O)[C@]1(C)O` [Azithromycin], for which the “outcome of previous treatment” value in series [1] (Azithromycin and Clavamox at therapeutic dose, about 2 weeks) is on record as “the symptoms did not abate”.

For `[H]/N=C(\N/C(=N/[H])NCCCCCCNC(=N)NC(=N)Nc1ccc(Cl)cc1)Nc1ccc(Cl)cc1` [Chlorhexidine wash, Chlorhexidine], the prevention of recurrence result in series [2] (in vivo) is listed as “no effect”.

Regarding `[Cl-].[Na+]` [Table salt], the LD50 in series [3] is 300 mg/kg.

For the compound `Nc1nc2c(ncn2COCCO)c(=O)[nH]1` [Zovirax, acyclovir], in [4] (treatment begun at first sign of an outbreak), the “blister size in diameter” value is listed as “about 4 mm”. For the same compound, the “duration of the outbreak” value in series [4] (untreated approximately 7-9 days) is listed as “about 5 days”.

The compound `NCC[C@H](O)C(=O)N[C@@H]1C[C@H](N)[C@@H](O[C@H]2O[C@H](CN)[C@@H](O)[C@H](O)[C@H]2O)[C@H](O)[C@H]1O[C@H]1O[C@H](CO)[C@@H](O)[C@H](N)[C@H]1O` [amikacin] displayed a minimal inhibitory concentration (MIC) in series [5] (Pseudomonas aeruginosa) of at most 8 µg/mL. Further, in series [5] (ear swab isolate), the sensitive / resistant entry is on record as “S”.

For the compound `CC1(C)S[C@@H]2[C@H](NC(=O)[C@H](N)c3ccc(O)cc3)C(=O)N2[C@H]1C(=O)O` [amoxicillin], the “outcome of previous treatment” value in series [6] is given as “slight improvement followed by a relapse”. In addition, the sensitive / resistant result in [5] (ear swab isolate) is “R”.

As to `CC1(C)S[C@@H]2[C@H](NC(=O)[C@H](N)c3ccccc3)C(=O)N2[C@H]1C(=O)O` [ampicillin], in series [5] (ear swab isolate), the sensitive / resistant entry was “R”.

`N#C[C@H](O[C@@H]1O[C@H](CO[C@@H]2O[C@H](CO)[C@@H](O)[C@H](O)[C@H]2O)[C@@H](O)[C@H](O)[C@H]1O)c1ccccc1` [amygdalin]: the median lethal dose (LD50) entry in [7] (literature) is recorded as “about 900 mg/body weight kg”. Also, in series [7] (oral, scientific literature), the “LD 50 of oral amygdalin” value was 400 to 900 mg/kg.

Regarding `CC(=O)Oc1ccccc1C(=O)O` [aspirin], in series [3], the median lethal dose (LD50) is 200 to 1200 mg/kg.

For `Cc1nnc(SCC2=C(C(=O)O)N3C(=O)[C@@H](NC(=O)Cn4cnnn4)[C@H]3SC2)s1` [cefazolin], the sensitive / resistant entry in series [5] (ear swab isolate) is recorded as “R”.

Consider `CO/N=C(/C(=O)N[C@@H]1C(=O)N2C(C(=O)O)=C([C@@H]3CCCO3)CS[C@H]12)c1csc(N)n1` [cefovecin], for which, in series [5] (ear swab isolate), the sensitive / resistant entry is given as “R”.

In turn, `CO[C@@]1(NC(=O)Cc2cccs2)C(=O)N2C(C(=O)O)=C(COC(N)=O)CS[C@@H]21` [cefoxitin] gave a minimal inhibitory concentration (MIC) in series [5] (Pseudomonas aeruginosa) of at least 32 µg/mL. In addition, the sensitive / resistant result in [5] (ear swab isolate) is on record as “R”.

In series [5] (Pseudomonas aeruginosa), `COCC1=C(C(=O)O)N2C(=O)[C@@H](NC(=O)/C(=N\OC)c3csc(N)n3)[C@H]2SC1` [cefpodoxime] displayed an MIC of at least 8 µg/mL. Besides, the sensitive / resistant entry in series [5] (ear swab isolate) was “R”.

For `CO/N=C(\C(=O)N[C@@H]1C(=O)N2C(C(=O)O)=C(CSC(=O)c3ccco3)CS[C@H]12)c1csc(N)n1` [ceftiofur], the MIC in series [5] (Pseudomonas aeruginosa) was at least 8 µg/mL. Moreover, the sensitive / resistant entry in series [5] (ear swab isolate) was “R”.

For the compound `CC1=C(C(=O)O)N2C(=O)[C@@H](NC(=O)[C@H](N)c3ccc(O)cc3)[C@H]2SC1` [cephadroxil], the sensitive / resistant entry in series [5] (ear swab isolate) is given as “R”.

Regarding `CC1=C(C(=O)O)N2C(=O)[C@@H](NC(=O)[C@H](N)c3ccccc3)[C@H]2SC1` [cephalexin], in series [5] (ear swab isolate), the sensitive / resistant entry was “R”.

For `CO/N=C(/C(=O)N[C@@H]1C(=O)N2C(C(=O)[O-])=C([C@@H]3CCCO3)CS[C@H]12)c1csc(N)n1.[Na+]` [convenia], the “outcome of previous antibiotic treatment” value in series [8] is on record as “the condition continued to worsen”.

`CCN1CCN(c2cc3c(cc2F)c(=O)c(C(=O)O)cn3C2CC2)CC1` [enrofloxacin]: in series [9], the “outcome of previous antibiotic treatment” value is “only temporary mild improvement, followed by a quick relapse”. Further, the “outcome of previous treatment” value in series [1] (switched to Enrofloxacin, Clavomox continued) is recorded as “the symptoms continued to worsen”. In series [5] (Pseudomonas aeruginosa), this compound returned a minimum inhibitory concentration (MIC) of at most 0.5 µg/mL. In series [5] (ear swab isolate), the sensitive / resistant result is “S”.

Regarding `CC[C@H]1OC(=O)[C@H](C)[C@@H](O[C@H]2C[C@@](C)(OC)[C@@H](O)[C@H](C)O2)[C@H](C)[C@@H](O[C@@H]2O[C@H](C)C[C@H](N(C)C)[C@H]2O)[C@](C)(O)C[C@@H](C)C(=O)[C@H](C)[C@@H](O)[C@]1(C)O` [erythromycin], the antibiotic sensitivity entry in series [10] was “resistance”.

Consider `Clc1ccccc1C(c1ccccc1)(c1ccccc1)n1ccnc1` [lotrimazole], for which the “outcome of previous treatment” value in series [2] (oral capsule and cream 5-7 days, infection again after 3-6 months) is “good symptomatic response”.

`CN1CCN(c2c(F)cc3c(=O)c(C(=O)O)cn4c3c2OCN4C)CC1` [marbofloxacin] displayed an MIC in [5] (Pseudomonas aeruginosa) of at most 1 µg/mL. Moreover, the sensitive / resistant result in series [5] (ear swab isolate) was “S”.

In the case of `CO[C@H]1/C=C/O[C@@]2(C)Oc3c(C)c(O)c4c(O)c(c(/C=N/N5CCN(C)CC5)c(O)c4c3C2=O)NC(=O)/C(C)=C\C=C\[C@H](C)[C@H](O)[C@@H](C)[C@@H](O)[C@@H](C)[C@H](OC(C)=O)[C@@H]1C` [rifampin], the antibiotic sensitivity result in series [10] is given as “resistance”.

Take gentamicin: in series [5] (ear swab isolate), the sensitive / resistant entry was “S”. Besides, the MIC entry in series [5] (ear swab isolate, heavy growth) is given as “<= 2 ug/ml”.
